From patent US20110257108A1, “SYNTHESIS AND ACTIVITY OF LACTOSE ESTERS” (Utah State University, priority 2010, published 2011) come the findings set out here.

How the values of data set [1] were obtained:
Aliquots, 600 μL, of each filtered sample were dried by a Savant SpeedVac system. The dry sugar in each tube was re-suspended in 600 μL de-ionized water. […] The amount of sugar in each sample was determined by comparing peak areas to the lactose-in-water control.

The subject of data set [2] is Enterococcus faecalis (ATCC 700802). Nature of the data set: Microbial growth inhibition (microtiter OD 600 nm, 48 hours). The note with it: gram positive, FIG. 7. Format: cell-based. As to the method: (§1) Referring now to FIG. 7 and Table 4, the microbial inhibitory characteristics of LML synthesized and purified as described above, were investigated against Enterococcus faecalis (ATCC 700802), Listeria monocytogenes, Staphyloccus suis, Escherichia coli H7P:0157H7 (ATCC 35150), Salmonella typhimurium (ATCC 700720) and Klebsiella pneumoniae (ATCC 700721). Cultures were grown in appropriate microbial media with antibiotics and diluted to 10^5 colony forming units (CFU) per mL. Cultures (0.5 mL or 10^2.5 CFU total) were added to microtiter wells and an initial optical density (OD) at 600 nm was recorded. For treatments, LML in concentrations ranging from 0.001 to 0.1% was added to individual microtiter wells and the OD was again measured after 48 hours. Controls were treated similarly, but without the addition of LML. Percent growth inhibition was determined by comparing the OD reading for the controls and treatments.

Data set [3] has as its system Escherichia coli H7P:0157H7 (ATCC 35150). Described as above. Format: cell-based. The conditions noted are these: gram negative; LML 0.001 to 0.1%; FIG. 7. As to the method: as §1
Data set [4] deals with Klebsiella pneumoniae (ATCC 700721). The description is as above. Format: cell-based. The conditions noted are these: gram negative; LML 0.001 to 0.1%; FIG. 7. As to the method:
as §1

Another data set relates to Listeria monocytogenes. The description is as above. Format: cell-based. The note with it: gram positive, FIG. 7. How it is done: as §1
Data set [5] deals with Salmonella typhimurium (ATCC 700720). The description is as above. Format: cell-based. The conditions noted are these: gram negative; LML 0.001 to 0.1%; FIG. 7. As to the method:
as §1

A further data set relates to Staphyloccus suis. The data set is described as above. Format: cell-based. The note with it: gram positive, FIG. 7. How it is done:
as §1

Data set [6] has as its system clinical isolates of Listeria monocytogenes. Nature of the data set: Microbial inhibitory studies with clinical isolates (microtitre well plate method, plate counts). Format: cell-based. The source says:
Referring now to FIGS. 8 through 12, in light of the microbial inhibitory effect shown with Listeria monocytogenese, we obtained clinical isolates of Listeria monocytogenes from the International Life Science Institute Database, Cornell University and tested LM at the same concentrations as listed above with the clinical isolate. Inhibitory effects against clinical isolates of Listeria monocytogenese are shown in FIGS. 8, 9, 10, 11 and 12 (inhibition shown is percent growth inhibition). The clinical isolates are described in Table 5.
Still referring to FIGS. 8 through 12, microbial inhibitory studies were carried out in microtitre well plate method. Cultures were grown in appropriate microbial media with antibiotics and diluted to 10^5 colony forming units (CFU) per mL. Cultures (0.5 mL or 10^2.5 CFU total) were added to microtiter wells and an initial optical density (OD) at 600 nm was recorded. The studies were conducted by adding different concentrations of LML as described above with appropriate controls (media only, media plus cells, media plus cells and 0.1% Polysorbate 80, same amount of ethanol as in the vol of LML plus 0.1% polysorbate 80 with cells). Plate counts of all controls and treatments were done. For each strain and treatment, the experiments were done 6 times and replicated at least once. Data shown has a coefficient of variation of less than 10%. […]

For the molecule `OC[C@H]1O[C@@](CO)(O[C@H]2O[C@H](CO)[C@@H](O)[C@H](O)[C@H]2O)[C@@H](O)[C@@H]1O` [sucrose], in data set [1], the “solubility in 2M2B” value is listed as 700-800 micromol/L solvent and the “solubility in the other solvents” value is reported as 50-200 micromol/L solvent.
As for lactose monolaurate [LML], the growth inhibition entry is recorded as “limited inhibition” in data set [2] (LML 0.005% and less); “inhibited” in data set [2] (LML 0.1% (1 mg/mL)); “limited inhibition” with Listeria monocytogenes (LML 0.005% and less); “inhibited” in the data set on Listeria monocytogenes (LML 0.1% (1 mg/mL)); “limited inhibition” in the data set with Staphyloccus suis (LML 0.005% and less); “inhibited” in the data set on Staphyloccus suis (LML 0.1% (1 mg/mL)). In addition, the susceptibility to inhibition result in data set [3], in data set [4] and in data set [5] was “minimal susceptibility” in each case. Besides, in data set [6] (LML 1.0 mg/mL, each strain (J1-177, C1-056, N3-013, R2-499, N1-227), with 0.1% Polysorbate 80, versus control with ethanol and tween), the percent growth inhibition is reported as 70-90%. Further, the “type of inhibition (plate counts)” value in data set [6] (plate counts of treatments compared to the controls) is “bacterial static”.
